Source: patent US20040171489A1, “Synergistic active compound combinations for controlling harmful plants” (priority 1998, published 2004)
Where a name gives a salt, the structure may show the parent alone.

Tests used:
Capsella bursa-pastoris = assay: Example 9 field trials, application 1-3 leaf stage broad-leaved weeds: herbicidal effect; assay type: in vivo; details: 2000 g of ai/ha; 120 to 160 days after application
Method: (§1) The herbicidal efficacy of the active compounds or active compound mixtures was scored visually using the treated plots in comparison to untreated control plots. The damage and development of all above-ground parts of the plants were recorded. Scoring was carried out using a percentage scale (100% effect=all plants killed; 50% effect=50% of the plants and the green parts of the plants killed; 0% effect=no noticeable effect=like control plot. The scores of in each case 4 plots were averaged.
(§2) If the observed activity values already exceed the formal sum of the values for the trials with the individual applications, they also exceed the expected value according to Colby which is calculated using the following formula and which is likewise considered to be an indication of synergism (cf. S. R. Colby; in Weeds 15 (1967) p. 20 to 22):
(§3) Crop plants were grown outdoors on plots under natural outdoor conditions, and seeds or rhizome pieces of typical harmful plants were laid out or the natural weed growth was utilized. Treatment with the compositions according to the invention was carried out after the harmful plants had emerged and the crop plants were, generally, at the 2- to 4-leaf stage; in some cases (as stated), application of individual active compounds or active compound combinations was carried out pre-emergence (cf. Section 1) or post-emergence (cf. Section 2) or as a sequential treatment partly pre-emergence and/or post-emergence. After the application, for example 2, 4, 6 and 8 weeks after the application, the effect of the preparations was scored visually by comparison with untreated controls (cf. scoring in Section 1). In the field trial as well, the compositions according to the invention have synergistic herbicidal activity against a broad spectrum of economically important weed grasses and broad-leaved weeds. […] Moreover, the effects in essential phases of the scoring period were above the expected values according to Colby, also indicating synergism. In contrast, the crop plants were, as a consequence of the treatments with the herbicidal compositions, damaged only to a small degree, if at all.

Alopecurus myosuroides = assay: as above; assay type: in vivo; details: 2000 g of ai/ha; 120 to 160 days after application
Method: as §1, §2, §3

Papaver rhoeas [1] = assay: Example 1 field trial, 2-4 leaf stage: herbicidal effect; assay type: in vivo; details: 1000 g of ai/ha; 28 days after application
Method: as §1, §2, §3

winter wheat [2] = assay: Example 9 field trials, application 1-3 leaf stage broad-leaved weeds: crop damage; assay type: in vivo, Triticum aestivum; details: winter wheat (Triticum aestivum), in vivo
Method: as §1, §2
as §3, with “In contrast, the crop plants were, as a consequence of the treatments with the herbicidal compositions, damaged only to a small degree, if at all.” left out

winter barley [3] = assay: as above; assay type: in vivo, Hordeum vulgare; details: winter barley (Hordeum vulgare), in vivo
Method: as §1, §2
as §3, with “In contrast, the crop plants were, as a consequence of the treatments with the herbicidal compositions, damaged only to a small degree, if at all.” left out

winter barley [4] = assay: Example 1 field trial, 2-4 leaf stage: crop damage; assay type: in vivo, Hordeum vulgare; details: winter barley (Hordeum vulgare), in vivo, 28 days
Method: as §1, §2, §3

Galium aparine = assay: Example 10 pre-emergence application, fall: herbicidal effect; assay type: in vivo; details: 1000 g of ai/ha; 169 days after application
Source text: (§4) Seeds or rhizome pieces of monocotyledonous and dicotyledonous weed plants are placed in sandy loam soil in pots and covered with soil. The compositions, formulated in the form of concentrated aqueous solutions, wettable powders or emulsion concentrates, are then applied to the surface of the soil cover as aqueous solution, suspension or emulsion at an application rate of 600 to 800 l of water/ha (converted), in various dosages. After the treatment, the pots are placed in a greenhouse and kept under good growth conditions for the weeds. After the test plants have emerged, the damage to the plants or the negative effects on the emergence is scored visually after a test period of 3 to 4 weeks by comparison with untreated controls. As shown by the test results, the compositions according to the invention have good herbicidal pre-emergence activity against a broad spectrum of weed grasses and broad-leaved weeds.
as §1, §2, §3

winter wheat [5] = assay: Example 10 pre-emergence application, fall: crop damage; assay type: in vivo, Triticum aestivum; details: winter wheat (Triticum aestivum), in vivo, 169 days
Source text: as §4, §1, §2, §3

Sorghum verticilliflorum = assay: Example 13 field trial, 2- to 4-leaf stage: herbicidal effect; assay type: in vivo; details: 17 days after application
Method: as §1, §2, §3

summer wheat = assay: Example 13 field trial, 2- to 4-leaf stage: crop damage; assay type: in vivo, Triticum aestivum
Method: as §1, §2, §3

Euphorbia heterophylla = assay: Example 20 field trial, 3-leaf stage: herbicidal effect; assay type: in vivo; details: 31 days after application
Method: as §1, §2, §3

Oryza sativa (rice) [6] = assay: Example 20 field trial, 3-leaf stage: crop damage; assay type: in vivo; details: in vivo
Method: as §1, §2, §3

winter wheat [7] = assay: Example 12 field trial, 2- to 4-leaf stage: crop damage; assay type: in vivo, Triticum aestivum
Method: as §1, §2, §3

Lamium purpurea = assay: Example 12 field trial, 2- to 4-leaf stage: herbicidal effect; assay type: in vivo; details: 42 days after application
Method: as §1, §2, §3

Matricaria chamomilla = assay: Example 14 field trial, 2- to 4-leaf stage: herbicidal effect; assay type: in vivo; details: 28 days after application
Method: as §1, §2, §3

Monochoria vaginalis = assay: Example 22 field trial, 2-leaf stage: herbicidal effect; assay type: in vivo; details: 25 g of ai/ha; 14 days after application
Method: as §1, §2, §3

Oryza sativa (rice) [8] = assay: Example 22 field trial, 2-leaf stage: crop damage; assay type: in vivo; details: in vivo
Method: as §1, §2, §3

Papaver rhoeas [9] = assay: Example 5 field trial, 2-4 leaf stage: herbicidal effect; assay type: in vivo; details: 2.5 g of ai/ha; 28 days after application
Method: as §1, §2
as §3, with “In contrast, the crop plants were, as a consequence of the treatments with the herbicidal compositions, damaged only to a small degree, if at all.” left out

winter barley [10] = assay: Example 5 field trial, 2-4 leaf stage: crop damage; assay type: in vivo, Hordeum vulgare; details: winter barley (Hordeum vulgare), in vivo, 28 days
Method: as §1, §2
as §3, with “In contrast, the crop plants were, as a consequence of the treatments with the herbicidal compositions, damaged only to a small degree, if at all.” left out

Q: For `CC(C)c1ccc(NC(=O)N(C)C)cc1` [(B1.1.1), isoproturon, reference compound], which “herbicidal effect, CAPBP” value (Capsella bursa-pastoris) is on record?
A: 0%

Q: What about the “herbicidal effect, ALOMY” value (Alopecurus myosuroides) of the same compound?
A: 0%

Q: What about the “herbicidal effect, PAPRH” value (Papaver rhoeas [1]) of the same compound?
A: 15%

Q: What about the “damage, TRZAW” value (winter wheat [2]) of the same compound?
A: 0%

Q: And the “damage, HORVW” value (winter barley [3])?
A: 0%

Q: And the “damage, HORVW” value (winter barley [4])?
A: 0%

Q: What about the “herbicidal effect, GALAP” value (Galium aparine) of the same compound?
A: 15%

Q: And the “damage, TRZAW” value (winter wheat [5])?
A: 0%

Q: Which “herbicidal effect, SORVE” value (Sorghum verticilliflorum; 225 g of ai/ha) does the source give for `N#Cc1cc(Br)c(O)c(Br)c1` [(B2.3.1), bromoxynil] here?
A: 0%

Q: And the “herbicidal effect, SORVE” value (Sorghum verticilliflorum; 450 g of ai/ha)?
A: 25%

Q: And the “damage, TRZAS” value (summer wheat; 225 g of ai/ha, 17 days after application)?
A: 0%

Q: What about the “damage, TRZAS” value (summer wheat; 450 g of ai/ha, 17 days after application) of the same compound?
A: 0%

Q: How did the “herbicidal effect, EPHHL” value (Euphorbia heterophylla; 22.5 g of ai/ha) turn out when `CCOc1ccccc1OS(=O)(=O)NC(=O)Nc1nc(OC)cc(OC)n1` [(B2.1.9), ethoxysulfuron, reference compound] was run?
A: 45%

Q: What about the “herbicidal effect, EPHHL” value (Euphorbia heterophylla; 45 g of ai/ha) of the same compound?
A: 65%

Q: And the “damage, ORYSA” value (Oryza sativa (rice) [6])?
A: 0%

Q: With `CCOC(=O)/C(Cl)=C/c1cc(N2C(=O)C3=C(CCCC3)C2=O)ccc1Cl` [(B2.6.8), cinidon-ethyl] as the compound, how does the “damage, TRZAW” value (winter wheat [7]; in vivo) read?
A: 3%

Q: What about the “herbicidal effect, LAMPU” value (Lamium purpurea; 25 g of ai/ha) of the same compound?
A: 60%

Q: And the “herbicidal effect, LAMPU” value (Lamium purpurea; 50 g of ai/ha)?
A: 60%

Q: `N#Cc1cc(I)c(O)c(I)c1` [(B2.3.2), ioxynil] was tested. Which “herbicidal effect, MATCH” value (Matricaria chamomilla; 187 g of ai/ha) did it give?
A: 30%

Q: And the “herbicidal effect, MATCH” value (Matricaria chamomilla; 375 g of ai/ha)?
A: 45%

Q: With `COC(=O)c1ccccc1S(=O)(=O)NC(=O)N(C)c1nc(C)nc(OC)n1` [(B2.1.1), tribenuron-methyl] as the compound, how does the “herbicidal effect, SORVE” value (Sorghum verticilliflorum; 12.5 g of ai/ha) read?
A: 0%

Q: And the “damage, TRZAS” value (summer wheat; in vivo)?
A: 0%

Q: What does the source list for `C#CCN(C)c1c(C#N)cnn1-c1nn2c(c1Cl)CCCC2` [(B1.6.14), reference compound]?
A: herbicidal effect, MOOVA (Monochoria vaginalis): 82%; damage, ORYSA (Oryza sativa (rice) [8]): 0%

Q: Which results are given for `COc1nc(C)nc(NC(=O)NS(=O)(=O)c2cc(I)ccc2C(=O)O)n1` [(B3.1.4), iodosulfuron-methyl sodium salt, reference compound]?
A: herbicidal effect, PAPRH (Papaver rhoeas [9]): 0%; damage, HORVW (winter barley [10]): 0%

Q: Which “damage, TRZAW” value (winter wheat [7]; 3.7 g of ai/ha, 42 days after application) does the source give for `COc1ncc(F)c2nc(S(=O)(=O)Nc3c(F)cccc3F)nn12` [(B2.5.2), florasulam] here?
A: 3%

Q: And the “damage, TRZAW” value (winter wheat [7]; 7.5 g of ai/ha, 42 days after application)?
A: 3%

Q: And the “damage, TRZAW” value (winter wheat [7]; 15 g of ai/ha, 42 days after application)?
A: 6%

Q: What about the “herbicidal effect, LAMPU” value (Lamium purpurea; 3.7 g of ai/ha) of the same compound?
A: 35%

Q: And the “herbicidal effect, LAMPU” value (Lamium purpurea; 7.5 g of ai/ha)?
A: 35%

Q: What about the “herbicidal effect, LAMPU” value (Lamium purpurea; 15 g of ai/ha) of the same compound?
A: 40%
